Laboratory results published in ChEMBL document CHEMBL4431377, “Design, Synthesis, and Characterization of Sulfamide and Sulfamate Nucleotidomimetic Inhibitors of hHint1” (ACS Med Chem Lett, 2016).

What was measured:
[1] = biological target: T1, Adenosine 5'-monophosphoramidase HINT1 (Homo sapiens, UniProt P49773); test: Binding affinity to His-tagged human full length HINT1 expressed in Rosetta2 pLysS cells by isothermal titration calorimetric assay
[2] = biological target: T1, Adenosine 5'-monophosphoramidase HINT1; test: Inhibition of His-tagged human full length HINT1 expressed in Rosetta2 pLysS cells using TrpAMP as substrate measured for 2 to 30 mins by fluorescence assay
[3] = Aqueous solubility of the compound in aqueous buffer at 5 mM; format: physicochemical; conditions: 5000 µM
[4] = Stability of the compound in PBS buffer assessed as cyclonucleoside formation at 50 to 100 uM by HPLC analysis; format: physicochemical
[5] = Aqueous solubility of the compound in aqueous buffer at 20 mM; format: physicochemical; conditions: 20000 µM
[6] = biological target: T1, Adenosine 5'-monophosphoramidase HINT1; test: Binding affinity to recombinant human HINT1 by isothermal titration calorimetric assay

T1 sequence (P49773 whole entry): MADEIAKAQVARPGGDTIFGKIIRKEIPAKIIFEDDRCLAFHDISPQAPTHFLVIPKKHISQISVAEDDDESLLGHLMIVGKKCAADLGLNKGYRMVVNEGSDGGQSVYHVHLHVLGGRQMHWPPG

Row | Structure (SMILES) | Kd [1] [nM] | IC50 [2] [nM] | inhibition [2] | solubility [3] | other results
1 | Nc1ncnc2c1ncn2[C@@H]1O[C@H](CNS(=O)(=O)NC(=O)CCCC[C@@H]2SC[C@@H]3NC(=O)N[C@@H]32)[C@@H](O)[C@H]1O | 320 | 1000 | Dose-dependent effect |  | 
2 | CCCC(=O)NS(=O)(=O)OC[C@H]1O[C@@H](n2cnc3c(=O)[nH]c(N)nc32)[C@H](O)[C@@H]1O.CCN(CC)CC | 2900 |  |  | Soluble | 
3 | CCN(CC)CC.O=C(CCc1c[nH]c2ccccc12)NS(=O)(=O)OC[C@H]1O[C@@H](n2cnc3c2ncn2ccnc32)[C@H](O)[C@@H]1O |  |  |  |  | Stability [4]: Stable; solubility [5]: Soluble
4 | Nc1nc2c(ncn2[C@@H]2O[C@H](COC(=O)NCCc3c[nH]c4ccccc34)[C@@H](O)[C@H]2O)c(=O)[nH]1 |  | 25500 | Dose-dependent effect |  | Kd [6]: 3650 nM

Second part, led by results:

Row | Kd [1] [nM] | IC50 [2] [nM] | inhibition [2] | solubility [3] | Structure (SMILES) | other results
5 | 920 |  |  | Soluble | CCN(CC)CC.Nc1nc2c(ncn2[C@@H]2O[C@H](CNS(=O)(=O)NC(=O)CCc3c[nH]c4ccccc34)[C@@H](O)[C@H]2O)c(=O)[nH]1 | 
6 | 810 |  |  | Soluble | CCN(CC)CC.Nc1nc2c(ncn2[C@@H]2O[C@H](COS(=O)(=O)NC(=O)CCc3c[nH]c4ccccc34)[C@@H](O)[C@H]2O)c(=O)[nH]1 | 
